Laboratory results taken from patent US9315503B2, “Kinase inhibitors” (CHIESI FARMACEUTICI S.p.A., priority 2011, dated 2016).
Counter-ions that a name gives are not always drawn.

Tests used:
p38alpha = target: T1, p38alpha (Homo sapiens, UniProt Q16539); experiment: P38Alpha enzyme inhibition assay (Alphascreen kinase activity assay); type: biochemical; details: 100 pM p38alpha, 250 μM ATP, 2 hours pre-incubation at 25° C., read-out: p38α inhibition (IC50 values)
T1 construct: purchased Invitrogen PV3304
T1 sequence (Q16539 whole entry): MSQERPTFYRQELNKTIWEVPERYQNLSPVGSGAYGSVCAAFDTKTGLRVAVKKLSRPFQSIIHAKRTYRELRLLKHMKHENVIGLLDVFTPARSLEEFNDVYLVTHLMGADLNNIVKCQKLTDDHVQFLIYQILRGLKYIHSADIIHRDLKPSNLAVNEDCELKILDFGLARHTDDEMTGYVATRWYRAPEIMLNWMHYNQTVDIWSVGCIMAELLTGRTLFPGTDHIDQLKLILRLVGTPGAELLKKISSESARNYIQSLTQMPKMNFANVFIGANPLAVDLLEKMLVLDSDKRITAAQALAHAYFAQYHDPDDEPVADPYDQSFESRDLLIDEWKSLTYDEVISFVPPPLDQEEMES
Method: P38Alpha Enzyme Inhibition Assay.
The inhibitory activity of compounds was determined using an Alphascreen® (Perkin Elmer) based kinase activity assay. Kinase reactions consisted of 25 mM HEPES pH 7.5, 10 mM MgCl2, 100 μM Na3VO4, 2 mM DTT, 0.05 mg/ml Tween 20, 100 pM p38alpha (Invitrogen, PV3304), 1% DMSO and 0.3 μg/ml ATF-2 fusion protein (New England Biolabs, 9224). Compounds were incubated under these conditions for 2 hours, at 25° C., prior to the initiation of the kinase activity by the addition of the 250 μM ATP. Reaction volumes were 20 uL. After 1 hr at 25° C. reactions were stopped by the adding 10 uL of 25 mM HEPES pH 7.5 containing 62.5 mM EDTA, 0.05% Triton X-100, 10% BSA and 0.83 ng/uL anti-phospho-ATF2 antibody (Abeam, ab28812). Detection was performed by measuring luminescence following the addition of Alphascreen Donor beads (Perkin Elmer 6765300) and Protein A Alphascreen Acceptor beads (Perkin Elmer 6760137), both at a final concentration of 20 ug/ml. IC50 values were determined from concentration-response curves.

[1] = system: LPS-stimulated TNFα release from PBMCs; experiment: LPS-stimulated PBMC TNFα release assay; type: cell-based; details: inhibition of TNFα release, human PBMCs, LPS 10 ng/ml, 18 h, ELISA, read-out: p38α inhibition (IC50 values)
Method: LPS-Stimulated PBMC TNFα Release Assay.
Peripheral Blood Mononuclear Cells (PBMCs) were isolated from healthy human volunteer blood using a standard density gradient centrifugation technique. Citrated blood was placed onto Histopaque™ and centrifuged. The PBMCs were removed from the density gradient interface and washed in phosphate buffered saline (PBS). The PBMCs were suspended in RPMI 1640 medium (without serum), dispensed into a 96-well plate and incubated at 37° C. for 3 h in a humidified incubator. After incubation, the medium was replaced (with medium containing 1% foetal bovine serum) and the plate incubated at 37° C., for 1 h, in the presence of test compound or the appropriate vehicle. LPS (10 ng/ml), or an appropriate vehicle control, was then added to the cells and the plate returned to the incubator for 18 h. Cell-free supernatants were removed and assayed for TNFα levels using an ELISA kit from R&D Systems.
A dose response curve to each test compound was performed and the effect of compound in each experiment was expressed as a percentage inhibition of the control TNFα release. Dose response curves were plotted and compound potency (IC50) was determined. Compounds were tested in at least three separate experiments.

| IC50 (p38alpha) | SMILES | IC50 [1] |
| --- | --- | --- |
| < 10 nM | Cc1ccc(-n2nc(C(C)(C)C)cc2NC(=O)N[C@H]2CC[C@@H](Oc3ccc4nnc(-c5ccccc5CN5CCOCC5)n4c3)c3ccccc32)cc1 [Example 20, 1-(5-tert-Butyl-2-p-tolyl-2H-pyrazol-3-yl)-3-{(1S,4R)-4-[3-(2-morpholin-4-ylmethyl-phenyl)-[1,2,4]triazolo[4,3-a]pyridin-6-yloxy]-1,2,3,4-tetrahydro-naphthalen-1-yl}-urea] | < 10 nM |
| < 10 nM | COCC(=O)Nc1cc(O[C@@H]2CC[C@H](NC(=O)Nc3cc(C(C)(C)C)nn3-c3ccc(C)cc3)c3ccccc32)ccn1 [Example 13, N-(4-{(1R,4S)-4-[3-(5-tert-Butyl-2-p-tolyl-2H-pyrazol-3-yl)-ureido]-1,2,3,4-tetrahydro-naphthalen-1-yloxy}-pyridin-2-yl)-2-methoxy-acetamide] | < 10 nM |
| < 10 nM | C[C@H]1COCCN1c1nnc2ccc(O[C@@H]3CC[C@H](NC(=O)Nc4cc(C(C)(C)C)nn4CCN4CCOCC4)c4ccccc43)cn12 [Example 142, 1-[5-tert-Butyl-2-(2-morpholin-4-yl-ethyl)-2H-pyrazol-3-yl]-3-{(1S,4R)-4-[3-((S)-3-methyl-morpholin-4-yl)-[1,2,4]triazolo[4,3-a]pyridin-6-yloxy]-1,2,3,4-tetrahydro-naphthalen-1-yl}-urea formate salt] | – |
| < 10 nM | C[C@@H]1CCC[C@H](C)N1c1nnc2ccc(O[C@@H]3CC[C@H](NC(=O)Nc4cc(C(C)(C)C)nn4-c4cccc(CN5CCCC5)c4)c4ccccc43)cn12 [Example 144, 1-[5-tert-Butyl-2-(3-pyrrolidin-1-ylmethyl-phenyl)-2H-pyrazol-3-yl]-3-{(1S,4R)-4-[3-((2S,6R)-2,6-dimethyl-piperidin-1-yl)-[1,2,4]triazolo[4,3-a]pyridin-6-yloxy]-1,2,3,4-tetrahydro-naphthalen-1-yl}-urea formate salt] | – |
| < 10 nM | C[C@H]1COCCN1c1nnc2ccc(O[C@@H]3CC[C@H](NC(=O)Nc4cc(C(C)(C)C)nn4-c4cccc(OCCN(C)C)c4)c4ccccc43)cn12 [Example 141, 1-{5-tert-Butyl-2-[3-(2-dimethylamino-ethoxy)-phenyl]-2H-pyrazol-3-yl}-3-{(1S,4R)-4-[3-((S)-3-methyl-morpholin-4-yl)-[1,2,4]triazolo[4,3-a]pyridin-6-yloxy]-1,2,3,4-tetrahydro-naphthalen-1-yl}-urea formate salt] | – |
| < 10 nM | C[C@H]1CCCCN1c1nnc2ccc(O[C@@H]3CC[C@H](NC(=O)Nc4cc(C(C)(C)C)nn4-c4ccnc(N(C)CCN(C)C)n4)c4ccccc43)cn12 [Example 140] | – |

Further lines, the compound ahead of its results:

| SMILES | IC50 (p38alpha) | IC50 [1] |
| --- | --- | --- |
| C[C@H]1CCCCN1c1nnc2ccc(O[C@@H]3CC[C@H](NC(=O)Nc4cc(C(C)(C)C)on4)c4ccccc43)cn12 [Example 111, 1-(5-tert-Butyl-isoxazol-3-yl)-3-{(1S,4R)-4-[3-((S)-2-methyl-piperidin-1-yl)-[1,2,4]triazolo[4,3-a]pyridin-6-yloxy]-1,2,3,4-tetrahydro-naphthalen-1-yl}-urea] | < 10 nM | < 10 nM |
| CN1CCCC[C@H]1c1nnc2ccc(O[C@@H]3CC[C@H](NC(=O)Nc4cc(C(C)(C)C)nn4CCO)c4ccccc43)cn12 [Example 120, 1-[5-tert-Butyl-2-(2-hydroxy-ethyl)-2H-pyrazol-3-yl]-3-{(1S,4R)-4-[3-((S)-1-methyl-piperidin-2-yl)-[1,2,4]triazolo[4,3-a]pyridin-6-yloxy]-1,2,3,4-tetrahydro-naphthalen-1-yl}-urea] | < 10 nM | < 10 nM |
| C[C@@H]1CCC[C@H](C)N1c1nnc2ccc(O[C@@H]3CC[C@H](NC(=O)NC4CC4)c4ccccc43)cn12 [Example 117, 1-Cyclopropyl-3-{(1S,4R)-4-[3-((2S,6R)-2,6-dimethyl-piperidin-1-yl)-[1,2,4]triazolo[4,3-a]pyridin-6-yloxy]-1,2,3,4-tetrahydro-naphthalen-1-yl}-urea formate salt] | – | < 10 nM |
| Cc1ccc(-n2nc(C(C)(C)C)cc2NC(=O)N[C@H]2CC[C@@H](Oc3ccc4nnc(CN5CCCC5)n4c3)c3ccccc32)cc1 [Example 16, 1-(5-tert-Butyl-2-p-tolyl-2H-pyrazol-3-yl)-3-[(1S,4R)-4-(3-pyrrolidin-1-ylmethyl-[1,2,4]triazolo[4,3-a]pyridin-6-yloxy)-1,2,3,4-tetrahydro-naphthalen-1-yl]-urea] | – | < 10 nM |
| Cc1ccc(-n2nc(C(C)(C)C)cc2NC(=O)N[C@H]2CC[C@@H](Oc3ccc4nnc(CN5CCN(C)CC5)n4c3)c3ccccc32)cc1 [Example 14, 1-(5-tert-Butyl-2-p-tolyl-2H-pyrazol-3-yl)-3-{(1S,4R)-4-[3-(4-methyl-piperazin-1-ylmethyl)-[1,2,4]triazolo[4,3-a]pyridin-6-yloxy]-1,2,3,4-tetrahydro-naphthalen-1-yl}-urea formate salt] | – | 10 to 100 nM |
| Cc1ccc(-n2nc(C(C)(C)C)cc2NC(=O)N[C@H]2CC[C@@H](Oc3ccc4nnc(CN5CCOCC5)n4c3)c3ccccc32)cc1 [Example 15, 1-(5-tert-Butyl-2-p-tolyl-2H-pyrazol-3-yl)-3-[(1S,4R)-4-(3-morpholin-4-ylmethyl-[1,2,4]triazolo[4,3-a]pyridin-6-yloxy)-1,2,3,4-tetrahydro-naphthalen-1-yl]-urea formate salt] | – | < 10 nM |
| Cc1ccc(-c2nc(C(C)(C)C)[nH]c2NC(=O)N[C@H]2CC[C@@H](Oc3ccc4nnc(N5CCCCC5)n4c3)c3ccccc32)cc1 [Example 51, 1-(2-tert-Butyl-5-p-tolyl-3H-imidazol-4-yl)-3-[(1S,4R)-4-(3-piperidin-1-yl-[1,2,4]triazolo[4,3-a]pyridin-6-yloxy)-1,2,3,4-tetrahydro-naphthalen-1-yl]-urea] | < 10 nM | – |
| C[C@H]1CCCCN1c1nnc2ccc(O[C@@H]3CC[C@H](NC(=O)Nc4cc(C(C)(C)C)nn4-c4cccc(OCCN5CCCCC5)c4)c4ccccc43)cn12 [Example 157, 1-{5-tert-Butyl-2-[3-(2-piperidin-1-yl-ethoxy)-phenyl]-2H-pyrazol-3-yl}-3-{(1S,4R)-4-[3-((S)-2-methyl-piperidin-1-yl)-[1,2,4]triazolo[4,3-a]pyridin-6-yloxy]-1,2,3,4-tetrahydro-naphthalen-1-yl}-urea formate salt] | < 10 nM | – |
| CCN(C)CCc1cccc(-n2nc(C(C)(C)C)cc2NC(=O)N[C@H]2CC[C@@H](Oc3ccc4nnc(N5CCCC[C@@H]5C)n4c3)c3ccccc32)c1 [Example 133, 1-(5-tert-Butyl-2-{3-[2-(ethyl-methyl-amino)-ethyl]-phenyl}-2H-pyrazol-3-yl)-3-{(1S,4R)-4-[3-((S)-2-methyl-piperidin-1-yl)-[1,2,4]triazolo[4,3-a]pyridin-6-yloxy]-1,2,3,4-tetrahydro-naphthalen-1-yl}-urea formate salt] | < 10 nM | – |
| Cc1ccc(-n2nc(C(C)(C)C)cc2NC(=O)N[C@H]2CC[C@@H](OCCN3CCOCC3)c3ccccc32)cc1 [Example 32, 1-(5-tert-Butyl-2-p-tolyl-2H-pyrazol-3-yl)-3-[(1S,4R)-4-(2-morpholin-4-yl-ethoxy)-1,2,3,4-tetrahydro-naphthalen-1-yl]-urea] | 100 to 500 nM | – |
